From patent EP0584085B1, “ANTIBIOTIC CARBAPENEM DERIVATIVES” (ZENECA LIMITED, priority 1991, dated 1992)
Values after ≈ are worked out from the molar mass of the structure shown.

What was measured:
Test in all cases: MIC by agar-dilution, Diagnostic Sensitivity Test agar
Format in all cases: cell-based
[1] = test system: S.dublin (369001); settings: Salmonella enterica, inoculum 10^4 CFU/spot
From the text: (§1) The following results were obtained for representative compounds on a standard in vitro test system using Diagnostic Sensitivity Test agar medium. The antibacterial activity is described in terms of the minimum inhibitory concentration (MIC) determined by the agar-dilution technique with an inoculum size of 10^4 CFU/spot.

[2] = test system: B. fragilis AMP R (542008); settings: Bacteroides fragilis, inoculum 10^4 CFU/spot
From the text: as §1

[3] = test system: E.coli DCO (341098); settings: Escherichia coli, inoculum 10^4 CFU/spot
From the text: as §1

[4] = test system: P.aeruginosa PU21 (101028); settings: Pseudomonas aeruginosa, inoculum 10^4 CFU/spot
From the text: as §1

[5] = test system: Strep.pyogenes (681018); settings: Streptococcus pyogenes, inoculum 10^4 CFU/spot
From the text: as §1

[6] = test system: Ent.cloacae P99^- (401054); settings: Enterobacter cloacae
From the text: as §1

[7] = test system: Serr.marcesens (421003); settings: inoculum 10^4 CFU/spot
From the text: as §1

[8] = test system: P. aeruginosa 18S (101024); settings: Pseudomonas aeruginosa, inoculum 10^4 CFU/spot
From the text: as §1

[9] = test system: St.aureus 147N (601052); settings: Staphylococcus aureus, inoculum 10^4 CFU/spot
From the text: as §1

[10] = test system: Pr.morganii (433001); settings: Morganella morganii, inoculum 10^4 CFU/spot
From the text: as §1

C[C@@H](O)[C@H]1C(=O)N2C(C(=O)O)=C(S[C@@H]3CN[C@H](C(=O)Nc4cc(O)c(O)c(C#N)c4)C3)[C@H](C)[C@H]12 [Example 2, (1R,5S,6S,8R,2'S,4'S)-2-(2-(5-Cyano-3,4-dihydroxyphenylcarbamoyl)pyrrolidin-4-ylthio)-6-(1-hydroxyethyl)-1-methyl-carbapenem-3-carboxylic acid]
MIC [1]: 0.008 µg/mL (≈ 0.0164 µM)
MIC [2]: 0.25 µg/mL (≈ 0.512 µM)
MIC [3]: 0.015 µg/mL (≈ 0.0307 µM)
MIC [4]: 0.25 µg/mL (≈ 0.512 µM)
MIC [5]: 0.008 µg/mL (≈ 0.0164 µM)
MIC [6]: 0.015 µg/mL (≈ 0.0307 µM)
MIC [7]: 0.125 µg/mL (≈ 0.256 µM)
MIC [8]: 0.06 µg/mL (≈ 0.123 µM)
MIC [9]: 0.25 µg/mL (≈ 0.512 µM)
MIC [10]: 0.125 µg/mL (≈ 0.256 µM)
